Source: patent US11149046B2, “Antibacterial sideromycins” (Hsiri Therapeutics, Inc., priority 2014, dated 2021)
≈ marks a conversion by molar mass, not a printed value. Where two headings read alike, the source gives them in different places.

Tests used:
[1] = test system: strains of Pseudomonas and Acinetobacter; test: Antibacterial activity, general statements; type: cell-based; settings: general statements of the text
Protocol: Antibiotic activity was determined using agar diffusion assays against representative Gram-negative bacteria, including Pseudomonas aeruginosa (Pa6), and several multidrug resistant forms of Acinetobacter baumannii. Representative results are shown in Table 1 and a corresponding picture of an actual petri dish showing the agar diffusion results (FIG. 4). […].

[2] = test system: S. Aureus ISR 14-001; test: MIC determination; type: cell-based; settings: Staphylococcus aureus; Table 2; read-out: in vitro activity (MIC)
[3] = test system: A. baumannii ARC 3486; test: MIC determination; type: cell-based; settings: Acinetobacter baumannii, ARC3486; Table 2; read-out: in vitro activity (MIC)
[4] = test system: S. Aureus ISR-002; test: MIC determination; type: cell-based; settings: Staphylococcus aureus; Table 2; read-out: in vitro activity (MIC)
[5] = test system: P. aeruginosa Pa6; test: Agar diffusion assay; type: cell-based, Pseudomonas aeruginosa; settings: M-HII media, 0.5 mM (ciprofloxacin 5 μg/ml), 50 uL per well, 37° C. 20 hrs, P unclear, V very unclear zone
Protocol: (§1) Antibiotic activity was determined using agar diffusion assays against representative Gram-negative bacteria, including Pseudomonas aeruginosa (Pa6), and several multidrug resistant forms of Acinetobacter baumannii. Representative results are shown in Table 1 and a corresponding picture of an actual petri dish showing the agar diffusion results (FIG. 4). […]. [table]

[6] = test system: A. baumannii ATCC 17961; test: MIC determination; type: cell-based, Acinetobacter baumannii; settings: Acinetobacter baumannii, ATCC17961, Table 2; read-out: in vitro activity (MIC)
From the text: (§2) Table 3 that was included in the first Example 4 section provides antibacterial data for the first synthetic sideromycins we prepared and studied. The second Example 4 section elaborated and expanded on that data with inclusion of representative antibacterial data in the text and associated pictures of Petri dish assays. MIC (minimum inhibition concentration) is given in μM and AD (agar diffusion zones of inhibition are given in mm from Kirby-Bauer Petri dish growth inhibition studies).

[7] = test system: A. baumannii BAA 1797; test: Agar diffusion assay; type: cell-based, Acinetobacter baumannii; settings: M-HII media, 0.5 mM (ciprofloxacin 5 μg/ml), 50 uL per well, 37° C. 20 hrs, P unclear zone
Protocol: as §1

[8] = test system: A. baumannii BAA 1800; test: Agar diffusion assay; type: cell-based, Acinetobacter baumannii; settings: M-HII media, 0.5 mM (ciprofloxacin 5 μg/ml), 50 uL per well, 37° C. 20 hrs
Protocol: as §1

[9] = test system: A. baumannii BAA 1793; test: Agar diffusion assay; type: cell-based, Acinetobacter baumannii; settings: M-HII media, 0.5 mM (ciprofloxacin 5 μg/ml), 50 uL per well, 37° C. 20 hrs, P unclear zone
Protocol: as §1

[10] = test system: A. baumannii BAA 1710; test: Agar diffusion assay; type: cell-based, Acinetobacter baumannii; settings: M-HII media, 0.5 mM (ciprofloxacin 5 μg/ml), 50 uL per well, 37° C. 20 hrs, P unclear zone
Protocol: as §1

[11] = test system: A. baumannii ISR 14-0061; test: MIC determination; type: cell-based; settings: Acinetobacter baumannii, ISR140061; Table 2; read-out: in vitro activity (MIC)
[12] = test system: E. coli DC0; test: MIC determination; type: cell-based; settings: Escherichia coli
From the text: as §2

[13] = test system: Pseudomonas aeruginosa 01 (Pa01); test: MIC determination; type: cell-based; settings: Pseudomonas aeruginosa, Table 2; read-out: in vitro activity (MIC)
From the text: as §2

[14] = test system: Burkholderia multivorans AU0100; test: MIC determination; type: cell-based; settings: Table 2, read-out: in vitro activity (MIC)
[15] = test system: Acinetobacter baumannii ATCC 17961; test: In vivo activity against Acinetobacter baumannii in mice (FIG. 7); settings: 50 mg/kg IV at 30 min and 24 hr post inoculation; IP 10^8 A. baumannii ATCC 17961; female ICR mice
Protocol: Y-axis is percent surviving; x-axis is days after inoculation. Note: 5/5 Vehicle and 5/5 daptomycin treated mice were all dead at Day 1; […] female ICR mice; IP inoculation with 10^8 Acinetobacter baumannii ATCC 17961; Treatment administered IV at 30 min and 24 hr post inoculation; Treatments—Ciprofloxacin 50 mg/kg, HT-10100 mg/kg, HT-10 50 mg/kg, HT-10 25 mg/kg, HT-10 10 mg/kg, HT-10 5 mg/kg, daptomycin 50 mg/kg, Vehicle.

[16] = test system: multi-drug resistant Acinetobacter; test: Dose dependent agar diffusion (FIG. 5); type: cell-based
From the text: Note Daptomycin is not active (arrow),

SMILES | antibacterial activity (in words) [1] | MIC [2] [µM] | MIC [3] [µM] | MIC [4] [µM] | MIC [6] [µM] | MIC [11] [µM] | MIC [13] [µM] | MIC [14] [µM] | further results
O=C(O)c1cn(C2CC2)c2cc(N3CCNCC3)c(F)cc2c1=O [ciprofloxacin, reference compound] | completely inactive | 0.2 (≈ 0.0663 µg/mL) | > 5 | > 5 | 0.2 (≈ 0.0663 µg/mL) | > 5 | 0.2 (≈ 0.0663 µg/mL) | > 5 | Zone of Growth Inhibition [5]: 0 mm; Zone of Growth Inhibition [7]: 0 mm; Zone of Growth Inhibition [8]: 0 mm; Zone of Growth Inhibition [9]: 0 mm; Zone of Growth Inhibition [10]: 0 mm; MIC ([12]; DC0, Table 2, printed E. coli DCO, read-out: in vitro activity (MIC)): 0.2 µM (≈ 0.0663 µg/mL)
CCCCCCCCCC(=O)N[C@@H](Cc1c[nH]c2ccccc12)C(=O)N[C@H](CC(N)=O)C(=O)N[C@@H](CC(=O)O)C(=O)N[C@@H]1C(=O)NCC(=O)N[C@@H](CCCN)C(=O)N[C@@H](CC(=O)O)C(=O)N[C@H](C)C(=O)N[C@@H](CC(=O)O)C(=O)NCC(=O)N[C@H](CO)C(=O)N[C@@H]([C@H](C)CC(=O)O)C(=O)N[C@@H](CC(=O)c2ccccc2N)C(=O)O[C@@H]1C [daptomycin] | completely inactive | 0.8 (≈ 1.3 µg/mL) | > 200 | 0.8 (≈ 1.3 µg/mL) | > 100 | > 100 | > 100 | > 100 | treated mice dead at Day 1 [15]: 5/5; zone of inhibition at 500 µM ([5]; Pseudomonas aeruginosa, PA6, read-out: Zone of Growth Inhibition): 0 mm; zone of inhibition at 500 µM ([7]; Acinetobacter baumannii, BAA1797, read-out: Zone of Growth Inhibition): 0 mm; zone of inhibition at 500 µM ([8]; Acinetobacter baumannii, BAA1800, read-out: Zone of Growth Inhibition): 0 mm; zone of inhibition at 500 µM ([9]; Acinetobacter baumannii, BAA1793, read-out: Zone of Growth Inhibition): 0 mm; zone of inhibition at 500 µM ([10]; Acinetobacter baumannii, BAA1710, read-out: Zone of Growth Inhibition): 0 mm; in vitro activity (in words) [16]: not active; MIC ([12]; DC0, read-out: in vitro activity (MIC)): > 100 µM
